Where a name gives a salt, the structure may show the parent alone.
Experiment: Fluidity evaluation: angle of repose determination (fixed base cone method)
Assay type: physicochemical
Conditions: for fluidity (judgement in words): fixed base cone method
Excerpt: The term “fluidity” in the present Specification means adhesion and cohesion between particles or adhesion of a particle with a solid wall surface. Said “fluidity” can be put into numerical terms by, for instance, methods of determining the angle of repose of a powder. Methods of determining the angle of repose are known to those in the field, but the fixed base cone method by funnel is an example (for instance, “Yakuzaigaku,” Ryuichi Arita, Hitoshi Sezaki, editors (Kodansha Scientific), p. 182). […] R. L. Jr., Chemical Engineering, Jan. 18, p. 166, Table II, 1965).
[Fluidity evaluation: angle of repose determination] A funnel for pouring powder is placed above a table for determination of the angle of repose. The angle formed by the surface of a layer of accumulated powder and a horizontal plane when the powder is poured so that none remains in the funnel is determined and this angle (°) serves as the angle of repose.

SMILES | fluidity (judgement in words) | angle of repose (determination performed with a vibrator) [°]
Nc1c(Br)cc(Br)cc1CN[C@H]1CC[C@H](O)CC1 [amboxol hydrochloride, ambroxol hydrochloride] | could not be fed by funnel even using the vibrator | –
O=C([O-])[O-].[Ca+2] [calcium carbonate undiluted powder, calcium carbonate] | fluidity was not good | 50
NC(N)=Nc1nc(CSCCC(N)=NS(N)(=O)=O)cs1 [famotidine undiluted powder, famotidine] | extremely inferior fluidity | –
